According to article PMC6302903, “Protein and Chemical Determinants of BL-1249 Action and Selectivity for K2P Channels” (ACS Chemical Neuroscience, 2018):

How the values were obtained:
K2P2.1(TREK-1) F185L = target: T1, K2P2.1(TREK-1) F185L (Mus musculus, UniProt P97438, F200L); experiment: TEVC of K2P2.1(TREK-1) mutant F185L; assay type: cell-based; conditions: Xenopus oocytes
T1 construct: expressed in transfected cells; host or cells: Xenopus laevis oocytes, mRNA injected
Text: (§1) To identify K2P2.1(TREK-1) M2 residues that might participate in the BL-1249 response, we mapped the residues that differ between K2P2.1(TREK-1) and K2P4.1(TRAAK) in the context of the K2P2.1(TREK-1) structure[6] (Figure 5B,C). Two K2P2.1(TREK-1) M2 residues stood out as candidates that could explain the reduction in BL-1249 response when the entire M2 helix was replaced with M2 from K2P4.1(TRAAK). One is at the M2/M4 interface and occurs between Phe172 and Arg297 via a π–cation interaction that would be lost when Phe172 is replaced with the equivalent K2P4.1(TRAAK) residue Met134 (Figure 5C, right inset). […] To assess the importance of these interactions in the context of BL-1249 response, we made the K2P2.1(TREK-1) mutants F172M and F185L and measured their responses to BL-1249 (Figure 5D). […]
(§2) Xenopus laevis oocytes were harvested in accordance with UCSF IACUC protocol AN129690 and digested in calcium-free ND-96 (96 mM NaCl, 2 mM KCl, 3.8 mM MgCl2) immediately following harvest, as previously described.[6],[10] […] Defolliculated stage V–VI oocytes were injected with 0.2–6.0 ng of mRNA in 50 nL, and currents were recorded 24–48 h after injection. mRNA was synthesized from plasmid DNA using mMessage mMachine Kit (T7 promoter, Ambion, Life Technologies) and purified using RNEasy Kit (Qiagen). […]

K2P4.1(TRAAK) L147F = target: T2, K2P4.1(TRAAK) L147F (Mus musculus, UniProt O88454, L147F); experiment: TEVC of K2P4.1(TRAAK) mutant L147F; assay type: cell-based; conditions: Xenopus oocytes
T2 construct: expressed in transfected cells; host or cells: Xenopus laevis oocytes, mRNA injected
T2 sequence (O88454 whole entry L147F): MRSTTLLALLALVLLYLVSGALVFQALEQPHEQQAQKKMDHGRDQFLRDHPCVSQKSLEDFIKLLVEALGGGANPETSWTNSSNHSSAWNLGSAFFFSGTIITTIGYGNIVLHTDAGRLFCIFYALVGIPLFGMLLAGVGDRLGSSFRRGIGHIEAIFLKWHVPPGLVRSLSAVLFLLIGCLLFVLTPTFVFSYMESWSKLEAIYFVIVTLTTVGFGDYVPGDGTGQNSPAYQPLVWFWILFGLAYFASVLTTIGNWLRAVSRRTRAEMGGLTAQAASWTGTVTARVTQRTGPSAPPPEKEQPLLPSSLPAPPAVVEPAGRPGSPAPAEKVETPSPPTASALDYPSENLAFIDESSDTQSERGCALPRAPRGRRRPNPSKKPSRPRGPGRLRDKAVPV
Text: as §1, §2

T1 sequence (P97438 1-411 isoform P97438-2 F185L): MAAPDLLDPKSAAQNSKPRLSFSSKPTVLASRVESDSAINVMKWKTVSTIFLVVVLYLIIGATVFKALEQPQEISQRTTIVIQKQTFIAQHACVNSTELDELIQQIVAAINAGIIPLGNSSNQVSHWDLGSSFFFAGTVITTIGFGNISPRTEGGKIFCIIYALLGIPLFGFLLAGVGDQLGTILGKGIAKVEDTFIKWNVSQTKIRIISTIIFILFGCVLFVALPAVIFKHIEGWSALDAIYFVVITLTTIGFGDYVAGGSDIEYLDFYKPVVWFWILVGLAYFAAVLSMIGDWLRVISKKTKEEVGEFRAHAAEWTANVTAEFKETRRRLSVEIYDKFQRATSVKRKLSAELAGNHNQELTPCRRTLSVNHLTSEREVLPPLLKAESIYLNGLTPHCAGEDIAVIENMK

How did the EC50 (K2P2.1(TREK-1) F185L) turn out when `c1ccc(-c2nnn[nH]2)c(Nc2cccc3c2CCCC3)c1` [BL-1249, (5,6,7,8-tetrahydro-naphthalen-1-yl)-[2-(1H-tetrazol-5-yl)-phenyl]-amine] was run?
Its EC50 is 27 ± 5 µM.

And the EC50 (K2P4.1(TRAAK) L147F)?
Its EC50 is 27 ± 4 µM.
